Results published in publication PMC4660370 (Nature Communications, 2015).
Where two headings read alike, the source gives them in different places. Each block holds one molecule with its values, some of them ahead of it.

Key:
[1] = molecular target: T1, AgIMPDH (Eremothecium gossypii, UniProt Q756Z6); assay: IMPDH activity assay and enzyme kinetics (NADH absorbance at 340 nm), AgIMPDH; type: biochemical, A. gossypii; conditions: for effect on AgIMPDH catalytic activity in vitro: adenine nucleotides; for α (substrate–inhibitor heterotropic cooperative interaction) / β (fractional activity of the ternary enzyme–substrate-inhibitor complex): mixed inhibition model
Protocol: (§1) IMPDH activity was assayed by monitoring the reduction of NAD^+ to NADH and the subsequent increase in absorbance at 340 nm in buffer: 100 mM Tris-HCl, 100 mM KCl, 2 mM DTT pH 8.0. […] When Mg^+2 was included in the reaction, the total concentration of MgCl2 was 5 mM. The experimental data were fitted to the Michaelis–Menten equation of enzyme kinetics using the OriginPro software (OriginLab Corporation), to obtain the maximum apparent initial velocity (Vmax^app) and the apparent Michaelis–Menten constant (KM^app):
(§2) Following this equation, the global nonlinear regression analysis of Vmax^app and KM^app, as a function of the inhibitor concentration, allowed the intrinsic Michaelis–Menten constant (KM) and inhibition constant (Ki) for competitive inhibition to be determined. The substrate–inhibitor heterotropic cooperative interaction and the fractional activity of the ternary enzyme–substrate–inhibitor complex, α and β respectively, were estimated using a mixed inhibition model:
(§3) The constant α reflects the effect of the inhibitor on the apparent affinity of the enzyme for the substrate.

[2] = molecular target: T2, EcIMPDH (Escherichia coli, UniProt P0ADG7); assay: biochemical; type: biochemical; conditions: for effect on catalytic activity: ATP with or without 5 mM MgCl2
T2 construct: His8 (TEV site) (N, cleaved yes); made in house; host or cells: E. coli BL21 (DE3)
Protocol: as §1, §2, §3

[3] = molecular target: T3, HsIMPDH2 (Homo sapiens, UniProt P12268); assay: IMPDH activity assay and enzyme kinetics, HsIMPDH2; type: biochemical; conditions: for effect on catalytic activity: ATP with or without 5 mM MgCl2; for α (substrate–inhibitor heterotropic cooperative interaction) / β (fractional activity of the ternary enzyme–substrate-inhibitor complex): mixed inhibition model
T3 construct: His8 (modified pET15b vector, TEV site) (N); made in house
Protocol: as §1, §2, §3

[4] = molecular target: T4, HsIMPDH1 (Homo sapiens, UniProt P20839); assay: IMPDH activity assay and enzyme kinetics, HsIMPDH1; type: biochemical; conditions: for effect on catalytic activity: ATP with or without 5 mM MgCl2; for α (substrate–inhibitor heterotropic cooperative interaction) / β (fractional activity of the ternary enzyme–substrate-inhibitor complex): mixed inhibition model
T4 construct: His8 (modified pET15b vector, TEV site) (N); made in house
Protocol: as §1, §2, §3

[5] = molecular target: T5, BsIMPDH (Bacillus subtilis, UniProt P21879); assay: biochemical; type: biochemical, Bacillus subtillis; conditions: for effect on catalytic activity: ATP with or without 5 mM MgCl2
T5 construct: His8 (TEV site) (N, cleaved yes); made in house; host or cells: E. coli BL21 (DE3)
Protocol: as §1, §2, §3

[6] = molecular target: AgIMPDH-ΔBateman (Eremothecium gossypii, UniProt Q756Z6, DEL116-235/INS115SQDG); assay: Isothermal titration calorimetry, AgIMPDH-ΔBateman; type: binding, A. gossypii
Protocol: (§4) Standard ITC experiments were performed using an AutoITC200 system (Malvern Instruments). […] The resulting heats were integrated and fitted to a single binding site model implemented in the software package Origin (OriginLab Corporation).

[7] = molecular target: T1, AgIMPDH; conditions: GMP titration, WT
Protocol: as §4

[8] = molecular target: T1, AgIMPDH; assay: biochemical
Protocol: as §4

[9] = system: AgIMPDH ΔBateman; assay: IMPDH activity assay, mutant lacking the Bateman domain; type: biochemical, A. gossypii; conditions: 2 mM nucleotide
Protocol: as §1, with “(KM^app): […]” for “(KM^app):”

T5 sequence (P21879 whole entry): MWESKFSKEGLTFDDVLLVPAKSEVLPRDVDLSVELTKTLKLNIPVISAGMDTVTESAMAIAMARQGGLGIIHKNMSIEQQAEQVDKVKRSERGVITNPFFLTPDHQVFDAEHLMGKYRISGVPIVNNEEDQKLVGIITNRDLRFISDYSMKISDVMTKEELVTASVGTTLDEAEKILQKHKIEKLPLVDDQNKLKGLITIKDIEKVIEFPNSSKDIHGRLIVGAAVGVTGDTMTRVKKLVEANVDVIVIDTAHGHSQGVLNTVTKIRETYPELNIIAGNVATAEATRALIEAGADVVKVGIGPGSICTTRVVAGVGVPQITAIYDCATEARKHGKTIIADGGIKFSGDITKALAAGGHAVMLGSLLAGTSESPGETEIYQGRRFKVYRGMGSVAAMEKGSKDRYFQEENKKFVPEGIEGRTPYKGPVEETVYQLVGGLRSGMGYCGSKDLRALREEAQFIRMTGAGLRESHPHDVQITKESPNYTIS
T4 sequence (P20839 whole entry): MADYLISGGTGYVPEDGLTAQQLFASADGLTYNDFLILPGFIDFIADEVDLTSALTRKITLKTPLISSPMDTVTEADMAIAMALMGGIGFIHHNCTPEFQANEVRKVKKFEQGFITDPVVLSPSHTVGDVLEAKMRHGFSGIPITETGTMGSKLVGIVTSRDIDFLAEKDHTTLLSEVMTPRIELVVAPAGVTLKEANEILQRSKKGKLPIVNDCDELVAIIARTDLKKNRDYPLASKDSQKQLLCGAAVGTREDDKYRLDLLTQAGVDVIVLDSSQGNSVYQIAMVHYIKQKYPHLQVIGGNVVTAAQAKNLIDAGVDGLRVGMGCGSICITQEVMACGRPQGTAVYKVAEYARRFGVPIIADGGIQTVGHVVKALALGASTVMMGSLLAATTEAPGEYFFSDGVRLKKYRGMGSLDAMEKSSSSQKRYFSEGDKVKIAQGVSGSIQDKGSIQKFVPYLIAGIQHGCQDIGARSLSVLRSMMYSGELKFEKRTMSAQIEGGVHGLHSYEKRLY
T2 sequence (P0ADG7 whole entry): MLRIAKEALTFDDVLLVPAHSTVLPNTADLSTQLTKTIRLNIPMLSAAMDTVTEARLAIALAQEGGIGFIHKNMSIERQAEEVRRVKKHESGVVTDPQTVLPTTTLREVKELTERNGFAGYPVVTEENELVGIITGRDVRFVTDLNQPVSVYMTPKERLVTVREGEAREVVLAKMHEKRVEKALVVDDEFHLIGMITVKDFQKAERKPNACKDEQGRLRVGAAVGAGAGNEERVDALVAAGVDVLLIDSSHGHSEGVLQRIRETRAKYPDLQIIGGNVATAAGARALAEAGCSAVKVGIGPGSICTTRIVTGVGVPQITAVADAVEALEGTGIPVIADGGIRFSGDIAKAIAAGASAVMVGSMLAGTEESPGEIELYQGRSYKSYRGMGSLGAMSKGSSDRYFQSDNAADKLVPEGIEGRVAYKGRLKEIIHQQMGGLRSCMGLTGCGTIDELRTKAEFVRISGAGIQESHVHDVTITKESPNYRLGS

effect on AgIMPDH catalytic activity in vitro [1]: did not exert any significant effect
SMILES: Nc1ncnc2c1ncn2[C@@H]1O[C@H](COP(=O)(O)O)[C@@H](O)[C@H]1O [AMP]

effect on AgIMPDH catalytic activity in vitro [1]: did not exert any significant effect
SMILES: Nc1ncnc2c1ncn2[C@@H]1O[C@H](COP(=O)(O)OP(=O)(O)O)[C@@H](O)[C@H]1O [ADP]

SMILES: Nc1ncnc2c1ncn2[C@@H]1O[C@H](COP(=O)(O)OP(=O)([O-])OP(=O)([O-])O)[C@@H](O)[C@H]1O.[Mg+2] [Mg-ATP]
effect on catalytic activity [2]: neither ATP nor Mg-ATP showed a significant effect
effect on catalytic activity of AgIMPDH (Vmax app/Vmax, KM app/KM) ([1]; total MgCl2 5 mM): not affected
effect on catalytic activity [3]: neither ATP nor Mg-ATP showed a significant effect
effect on catalytic activity [4]: neither ATP nor Mg-ATP showed a significant effect
effect on catalytic activity [5]: neither ATP nor Mg-ATP showed a significant effect

SMILES: Nc1nc2c(ncn2[C@@H]2O[C@H](COP(=O)(O)O)[C@@H](O)[C@H]2O)c(=O)[nH]1 [GMP, guanosine-5′-monophosphate]
Inhibition (type) [2]: Competitive
Ki [2]: 1100 ± 100 µM
Inhibition (type) [1]: Competitive
Ki [1]: 600 ± 100 µM
Kd [6]: 22 µM
n (binding stoichiometry) ([6]; GMP titration, ΔBateman): 1.0
ΔH ([6]; GMP titration, ΔBateman): -7.7 kcal/mol
Inhibition (type) [3]: Competitive
n (binding stoichiometry) [7]: 0.9
ΔH [7]: -9.1 kcal/mol
Inhibition (type) [4]: Competitive
Kd [8]: 24 µM
Inhibition (type) [5]: Competitive
Ki [5]: 420 ± 70 µM
effect on enzymatic activity of ΔBateman mutant (KM app/KM) [9]: inhibited the wild-type and ΔBateman enzymes in a similar manner

SMILES: Nc1nc2c(ncn2[C@@H]2O[C@H](COP(=O)(O)OP(=O)(O)OP(=O)(O)O)[C@@H](O)[C@H]2O)c(=O)[nH]1 [GTP, guanosine-5′-triphosphate]
Inhibition (type) [2]: Competitive
Inhibition (type) [1]: Mixed type
α (substrate–inhibitor heterotropic cooperative interaction) [1]: 4.1±0.7
β (fractional activity of the ternary enzyme–substrate-inhibitor complex) [1]: 0.24±0.05
Ki ([1]; read-out: Ki): 160 ± 40 µM
Inhibition (type) [3]: Mixed type
Ki [3]: 480 ± 60 µM
α (substrate–inhibitor heterotropic cooperative interaction) [3]: 3.0±0.4
β (fractional activity of the ternary enzyme–substrate-inhibitor complex) [3]: 0.51±0.08
Inhibition (type) [4]: Mixed type
Ki [4]: 540 ± 60 µM
α (substrate–inhibitor heterotropic cooperative interaction) [4]: 3.8±0.5
β (fractional activity of the ternary enzyme–substrate-inhibitor complex) [4]: 0.11±0.04
Inhibition (type) [5]: No
effect on enzymatic activity of ΔBateman mutant (KM app/KM) [9]: not significantly affected

SMILES: Nc1nc2c(ncn2[C@@H]2O[C@H](COP(=O)(O)OP(=O)(O)O)[C@@H](O)[C@H]2O)c(=O)[nH]1 [GDP, guanosine-5′-diphosphate]
Inhibition (type) [2]: No
Inhibition (type) [1]: Mixed type
α (substrate–inhibitor heterotropic cooperative interaction) [1]: 6.5±0.8
β (fractional activity of the ternary enzyme–substrate-inhibitor complex) [1]: 0.033±0.005
Ki ([1]; read-out: Ki): 210 ± 40 µM
Inhibition (type) [3]: Mixed type
Ki [3]: 610 ± 60 µM
α (substrate–inhibitor heterotropic cooperative interaction) [3]: 6.6±0.8
β (fractional activity of the ternary enzyme–substrate-inhibitor complex) [3]: 0.14±0.05
Inhibition (type) [4]: Mixed type
Ki [4]: 230 ± 40 µM
α (substrate–inhibitor heterotropic cooperative interaction) [4]: 4.7±0.7
β (fractional activity of the ternary enzyme–substrate-inhibitor complex) [4]: 0.12±0.04
Inhibition (type) [5]: Mixed type—weak
Ki [5]: 2300 ± 400 µM
α (substrate–inhibitor heterotropic cooperative interaction) ([5]; mixed inhibition model): 2.9±0.4
β (fractional activity of the ternary enzyme–substrate-inhibitor complex) ([5]; mixed inhibition model): 0.8±0.1
effect on enzymatic activity of ΔBateman mutant (KM app/KM) [9]: not significantly affected

SMILES: Nc1ncnc2c1ncn2[C@@H]1O[C@H](COP(=O)(O)OP(=O)(O)OP(=O)(O)O)[C@@H](O)[C@H]1O [ATP]
effect on catalytic activity [2]: neither ATP nor Mg-ATP showed a significant effect
effect on AgIMPDH catalytic activity in vitro [1]: did not exert any significant effect
effect on catalytic activity [3]: neither ATP nor Mg-ATP showed a significant effect
effect on catalytic activity [4]: neither ATP nor Mg-ATP showed a significant effect
effect on catalytic activity [5]: neither ATP nor Mg-ATP showed a significant effect
